Laboratory results as given in article PMC3243694, “Integrated Dataset of Screening Hits against Multiple Neglected Disease Pathogens” (PLoS Neglected Tropical Diseases, 2011).

Assays:
[1] = system: Onchocerca (lienalis or ochengi) microfilariae; assay: Anti-Onchocerca microfilariae motility assay; type: cell-based, Onchocerca lienalis or O. ochengi
Experimental: (§1) The compound set was tested against the following parasites: intra-erythrocytic forms in human red blood cells of P. falciparum K1 strain (malaria), [16], [32], [33], [35], bloodstream forms of T. brucei Squib 427 strain (human African trypanosomiasis, HAT), [31], [32], [34], intracellular amastigotes of T. cruzi Tulahuen CL2, beta- galactosidase strain (Chagas' Disease), [32]–[35], intracellular amastigotes of L. infantum MHOM/MA(BE)/67 (leishmaniasis), [32]–[36], larval and/or adult worms of S. mansoni Puerto Rican strain (schistosomiasis), [31], [37], microfilariae of B. malayi (lymphatic filariasis), [30] and microfilariae of O. ochengi or O. lienalis (onchocerciasis), [30]. It should be noted that the human pathogen for onchocerciasis is Onchocerca volvulus, but due to lack of a suitable in vitro assay or animal models for this pathogen, O. ochengi and lienalis, which are both animal pathogens, are used in the primary and secondary assays, [30].
(§2) 4240 compound s were screened against O. ochengi at the University of Buea in Cameroon, while a subset of […] compounds was successfully screened in UK by the Northwick Park Institute for Medical Research against O. lienalis, at a uniform molarity. […] After removing molecules that were toxic to mammalian cells (IC50<5 µg/ml), 292 molecules remained for further evaluation. […] From the latter sub-set, […] distinct chemical series and one singleton [structure # 35] were active against both microfilaria and adults. One series [structures # 2, 3] was deemed not interesting due to lack of selectivity against mammalian cells. The remaining series is being transferred to ANDI for further progression as part of a new collaboration.

[2] = system: Schistosoma mansoni adult worms; assay: Anti-Schistosoma activity assay (adult worm motility); type: cell-based; details: S. mansoni adult worms; 12.5 µM (method: 10 µg/ml or 12.5 µM)
Experimental: as §1
A subset of 9478 of the 10,000 compound collection was tested against the Puerto Rican strain of S. mansoni. 6144 of these were tested in a primary larval assay followed by the ex-vivo adult secondary screen. The remainder was screened only in the adult assay. […] The 65 compounds were sorted by chemical attractiveness, potency against adult schistosomes in culture, selectivity against other parasites, and toxicity to mammalian cells in culture. Based on this analysis, 5 series encompassing 13 compounds were chosen for advancement through the African Network for Drug and Diagnostic Innovation (ANDI) and other PDPs. Representative structures [structures # 13, 27, 28] are shown (Table S1). These compounds are unburdened by obvious toxic moieties, have acceptable compliance with the Lipinski rules, are selectively active against schistosomes and are not overtly toxic to mammalian cells. It has unfortunately not been possible to titrate all of these hits in culture; of about 50% for which such data are available, none has an IC50<2 µg/ml (which is the initial potency criteria).

[3] = system: Plasmodium falciparum K1 strain; assay: Anti-Plasmodium activity assay (Malstat); type: cell-based; details: P. falciparum K1, 72 h
Experimental: as §1

[4] = system: Trypanosoma cruzi, Tulahuen CL2 strain; assay: Antitrypanosomal activity assay, T. cruzi in MRC-5 cells; type: cell-based; details: T. cruzi Tulahuen CL2 in MRC-5 cells, 7 days
Experimental: as §1
171 of the 744 actives passed the initial criterion of IC50<1 µg/ml for T. cruzi Tulahuen CL2, beta galactosidase strain maintained on MRC-5SV2 cells in MEM medium (MRC-5 cell/parasite inoculum: 4.10^3 cells/well+4.10^4 parasites/well), supplemented with […] L-glutamine, 16.5 mM NaHCO3 and 5% heat inactivated fetal calf serum. […] Of these, 109 were eliminated [structures #1–6] for poor selectivity versus mammalian cells (SI<50) and an additional 11 due to undesirable chemical attributes. The remaining 51 compounds were sorted into 10 series (45 compounds) and 6 singletons [structures # 21, 22]. Two of these series with excellent potency against T. cruzi, limited activity against other protozoa and SI values >50 (not shown), have been transferred to DNDi for further evaluation.

[5] = system: Onchocerca adult worms; type: cell-based
Excerpt: In some cases, particularly for the antifilarial screens, a second whole organism test with adult stage parasites is included prior to animal evaluation. The decision to utilize microfilariae for primary screening was based on throughput and biological considerations. It is difficult to acquire enough adult filariae to enable screening more than 1000 compounds per year, a rate far lower than needed for timely evaluation of the available compounds. In light of this situation, and considering that we are targeting molecules that are active on both stages, microfilariae screening was adopted as a suitable filter to identify compounds with potential macrofilaricidal activity.
as §2

[6] = system: MRC-5 cell line (diploid human embryonic lung fibroblast); assay: Cytotoxicity on MRC-5 cells; type: cell-based
Excerpt: [table] An important part of the screen is the evaluation of all compounds for cytotoxicity using the diploid human embryonic lung fibroblast MRC-5 cell line (Figure 2). Further evaluation of cytotoxicity also takes advantage of the assays for intracellular protozoan parasites, as in the case of L. infantum and T. cruzi, which include murine peritoneal macrophage host cells and MRC-5SV2 human lung fibroblast cells, respectively, in the culture system.

[7] = system: Trypanosoma brucei brucei Squib-427 strain; assay: Antitrypanosomal activity assay, T. brucei (resazurin); type: cell-based; details: T. brucei Squib 427 bloodstream forms, 72 h
Experimental: as §1

Row | Compound | ONC/MF % Motility Reduction at 12.5µM [1] | SCH % Motility Reduction at 12.5µM [2] | MAL IC50 [3] | CHA IC50 [4] | ONC/AW % worm Mortality @ 12.5µM [5] | CYT IC50 [6] | HAT IC50 [7]
1 | Cc1cc(NC(=O)CSc2ccc3nnc(-c4cccs4)n3n2)no1 [TDR78826] | 6.7% | 0% | 0.16 µg/mL | 4.97 µg/mL | 0% | >11.17 µg/mL | 
2 | CCCc1cc(=O)[nH]c(-n2nc(C)cc2NC(=O)C23CC4CC(CC(C4)C2)C3)n1 [TDR79936] | 100% | 100% | <0.12 µg/mL | <0.12 µg/mL | 75% | <0.12 µg/mL | <0.12 µg/mL
3 | CSCc1csc(NC(=O)Cc2ccc(Cl)cc2)n1 [TDR81206] | 100% | 0% | 5.98 µg/mL | 2.47 µg/mL | 75% | 3.7 µg/mL | 3.0 µg/mL
